Results as given in patent publication US9822179B2, “Recombinant TNF ligand family member polypeptides with antibody binding domain and uses therefor” (UNIVERSITAT STUTTGART, priority 2011, dated 2017).
Where a SMILES comes first, the peptide text is derived from it. The star is where a group is joined. Cbz = O=C(OCc1ccccc1)*; CH2F = FC*

B1: KillerTRAIL: commercially available highly active TRAIL preparation (Enzo Lifesciences / Axxora) (protein, UniProt P50591 39-281, looked up)
extracellular domain: TNELKQMQDKYSKSGIACFLKEDDSYWDPNDEESMNSPCWQVKWQLRQLVRKMILRTSEETISTVQEKQQNISPLVRERGPQRVAAHITGTRGRSNTLSSPNSKNEKALGRKINSWESSRSGHSFLSNLHLRNGELVIHEKGFYYIYSQTYFRFQEEIKENTKNDKQMVQYIYKYTSYPDPILLMKSARNSCWSKDAEYGLYSIYQGGIFELKENDRIFVSVTNEHLIDMDHEASFFGAFLVG
modifications: extracellular domain
B2: SEQ ID NO: 104: single chain TRAIL, three copies of TRAIL 95-281 linked by (GGGS)2 linkers, N-terminal FLAG tag, no component B (protein)
chain: TSEETISTVQEKQQNISPLVRERGPQRVAAHITGTRGRSNTLSSPNSKNEKALGRKINSWESSRSGHSFLSNLHLRNGELVIHEKGFYYIYSQTYFRFQEEIKENTKNDKQMVQYIYKYTSYPDPILLMKSARNSCWSKDAEYGLYSIYQGGIFELKENDRIFVSVTNEHLIDMDHEASFFGAFLVGGGGSGGGSTSEETISTVQEKQQNISPLVRERGPQRVAAHITGTRGRSNTLSSPNSKNEKALGRKINSWESSRSGHSFLSNLHLRNGELVIHEKGFYYIYSQTYFRFQEEIKENTKNDKQMVQYIYKYTSYPDPILLMKSARNSCWSKDAEYGLYSIYQGGIFELKENDRIFVSVTNEHLIDMDHEASFFGAFLVGGGGSGGGSTSEETISTVQEKQQNISPLVRERGPQRVAAHITGTRGRSNTLSSPNSKNEKALGRKINSWESSRSGHSFLSNLHLRNGELVIHEKGFYYIYSQTYFRFQEEIKENTKNDKQMVQYIYKYTSYPDPILLMKSARNSCWSKDAEYGLYSIYQGGIFELKENDRIFVSVTNEHLIDMDHEASFFGAFLVG
modifications: scTRAIL fusion protein
notes: single chain TRAIL, three copies of TRAIL 95-281 linked by (GGGS)2 linkers, N-terminal FLAG tag, no component B

Columns and labels:
[1] = system: EGFR+ Huh-7 hepatocellular carcinoma cells; experiment: EGFR-directed induction of cell death in Huh-7 cells, serial dilutions of protein, crystal violet; type: cell-based; conditions: 250 ng/ml bortezomib, caspase inhibitors 10 μM, 16 h
Protocol: (§1) After 16 h, cell viability was determined using MTT staining (Colo 205) or crystal violet staining (Huh-7) and data were normalized using bortezomib-treated cells as control (mean SEM, n=3). (B) 1×10^4 Colo205 cells per well were grown in 96-well plates using medium with 0.1% FCS. […] (C) 1×10^4 Huh-7 cells per well were grown in 96-well plates and treated with 20 ng/ml bortezomib or with a combination of bortezomib and 10 μM zVADfmk.
After 16 h, cell viability was determined using crystal violet staining.
(§2) As a positive control, cells were killed with 0.25% Triton X-100. Cell death assays with Huh-7 and HepG2 cells were performed in the absence (FIG. 6, Jurkat cells) or presence of Bortezomib (FIG. 7, Huh-7: 250 ng/ml, FIG. 6, HepG2: 500 ng/ml, FIG. 18, Huh-7: 250 ng/ml), Selleck Chemicals, Houston, Tex.). Bortezomib was added 30 min prior incubation with the proapoptotic ligands to sensitize cells for the induction of cell death (FIGS. 6, 7). Alternatively, cells were preincubated for 30 min with the indicated concentrations of TRAIL fusion proteins followed by addition of serial dilutions of Bortezomib (FIG. 8). […] After 16 h incubation, cell viability was determined either by crystal violet staining (Huh-7, HepG2) or the MTT method (Jurkat) (Wuest et al., 2002). In the latter case a lysis buffer consisting of 15% SDS in DMF/H2O (1:1), pH 4.5 (with […]) acetic acid) was used.

Colo205 cells = experiment: Caspase dependence of cell death in Colo205 cells, MTT; type: cell-based; conditions: 25 ng/ml bortezomib, caspase inhibitors 20 μM, 16 h
Protocol: as §1

Colo205 xenograft tumor = Colo205 xenograft tumor model
Protocol: Arrows, protein application; asterisks, bortezomib application; symbols, mean of tumor volumes 95% confidence interval (CI), n=12 tumors/treatment group.
8-week-old female NMRI nu/nu mice (Janvier) were injected s.c. with 3×10^6 Colo205 cells in 100 μl PBS at left and right dorsal sides. Treatment started 6 days after tumor cell inoculation when tumors reached about 100 mm^3. […] On day 1, 3, 5 and 7 of treatment, mice received additionally 5 μg bortezomib in 100 μl PBS i.p. three hours before protein injection. The control groups received 100 μl PBS or 5 μg bortezomib at the same time intervals. […] The Tukey's test was applied for statistics.

[2] = system: EGFR low/negative HepG2 cells; experiment: Target-independent induction of cell death, HepG2, crystal violet; type: cell-based; conditions: comparator named in value
Protocol: (§3) Cell viability was determined using crystal violet staining. Results from four independent experiments are shown (mean±S.E.M.). (B) Jurkat cells (1×10^5/well) were used for a similar experiment as described in (A). Jurkat cells were not sensitized. Results from three independent experiments are shown (mean±S.E.M.). Viability of Jurkat cells was determined using the MTT assay.
as §2

Jurkat cells = experiment: Target-independent induction of cell death, Jurkat, MTT assay; type: cell-based; conditions: not sensitized; SEQ ID NO: 102 compared to KillerTRAIL
Protocol: as §3, §2

[3] = system: Huh-7 hepatocellular carcinoma cells; experiment: Cell death in Huh-7 cells, constant protein concentration, serial dilutions of Bortezomib; type: cell-based; conditions: protein concentration of 1 nM and above
Protocol: Results from three independent experiments are shown (mean±S.E.M.).
as §2

[4] = 8 daily i.p. injections of 0.45 nmol + bortezomib every second day

Molecule	block of TRAIL fusion protein-induced cell death by inhibitor [1]	block of TRAIL fusion protein-induced cell death by inhibitor (Colo205 cells)	also measured
COC(=O)CC[C@H](NC(=O)[C@H](CC(=O)OC)NC(=O)OCc1ccccc1)C(=O)N[C@H](C(=O)N[C@@H](CC(=O)OC)C(=O)CF)C(C)C [zDEVDfmk]	nearly complete block of cell death	nearly complete block of cell death	
CN1C(=O)C(Cc2c[nH]c3ccccc23)NC1=S (stereo not drawn) [necrostatin-1]	failure of necrostatin-1 to prevent or reduce cell death	failure of necrostatin-1 to prevent or reduce cell death	
COC(=O)C[C@H](NC(=O)[C@H](C)NC(=O)[C@@H](NC(=O)OCc1ccccc1)C(C)C)C(=O)CF [zVADfmk] (Cbz-Val-Ala-Asp(OMe)-CH2F)	nearly complete block of cell death	nearly complete block of cell death	
CC(C)C[C@H](NC(=O)[C@H](Cc1ccccc1)NC(=O)c1cnccn1)B(O)O [Bortezomib]			effect on tumor growth (Colo205 xenograft tumor; bortezomib by itself, 5 μg i.p. on day 1, 3, 5 and 7): did not interfere with progressive tumor growth
B1			bioactivity on target negative cells, comparison in words [2]: comparable with the activity of SEQ ID NO: 96
B2			apoptosis-inducing activity on Jurkat cells (Jurkat cells): no reactivity; induction of apoptosis when sensitized with Bortezomib [3]: nearly equally efficient in induction of complete apoptosis; effect on tumor growth (Colo205 xenograft tumor; [4]): delayed tumor growth; regression of tumors (Colo205 xenograft tumor; [4]): did not induce regression of tumors
